What was measured:
[1] = system: CD3+CAR+ T cells; experiment: Co-culture of tumor cells and CAR T cells, venetoclax added at initiation or 24, 48 or 72 hours later (Example 9): CAR T cell number; type: cell-based
Procedure: FIGS. 14A and 14B show the number of CD3+CAR+ T cells and RL target cells, respectively, following a 6-day co-culture. Various concentrations of an exemplary BCL2 inhibitor were provided in the co-culture at its initiation, or 24, 48, or 72 hours after the initiation of co-culture.
Thus, in some cases, the cytotoic effects of a BCL2 inhibitor, e.g. venetoclax, and a T cell therapy (e.g. CAR T cells) may be synergistic to result in cell death of cells otherwise resistant to treatment with the T cell therapy alone. In some cases, administration of the inhibitor, e.g. venetoclax, may sensitize otherwise resistant cancer cells to CAR T cell-mediated killing when it is administered within or at about 7 days after administration of the cell therapy.

[2] = system: cells of the cell therapy (CAR-T cells); experiment: Activation induced cell death of cells of the cell therapy in presence of inhibitor; type: cell-based; settings: particularly if given at too high of a dosage
Source text: In some aspects, the provided methods, combinations and uses provide for or achieve improved or more durable responses or efficacy as compared to alternative methods, such as alternative methods involving only the administration of the immunotherapy or cell therapy but not in combination with an inhibitor of a prosurvival BCL2 family protein (e.g. venetoclax). In some embodiments, the methods are advantageous by virtue of administering an inhibitor of a prosurvival BCL2 family protein (e.g. venetoclax) shortly before (e.g. within 7 days) or concurrently with administration of an immunotherapy or a cell therapy (e.g. T cell therapy, such as CAR-T cell), thereby sensitizing the tumor and/or making the tumor less resistant to, or more susceptible to, treatment with the immunotherapy or cell therapy. […] However, delaying administration of the inhibitor of a prosurvival BCL2 family protein (e.g. venetoclax) until a time after AICD is at or has reached it peak or been reduced after having peaked can avoid detrimental effects on the cells of the cell therapy while substantially improving, e.g. synergistically increasing, T cell-mediated killing of the tumor by cells of the cell therapy (e.g. CAR-T cells).

[3] = system: SUDHL6; experiment: NucLight Red target cell killing by live cell imaging; type: cell-based; settings: venetoclax alone, 200 nM
Procedure: (§1) The cytolytic activity of anti-CD19 CAR T cells against two additional CD19-expressing lymphoma target cells lines, SUDHL6 and WSU-DLCL2, was assessed and compared to cytolytic activity against K562.CD19 target cells. Target cells were engineered with a lentiviral reagent to express NucLight Red (NLR) to permit tracking of target cells by microscopy. Anti-CD19 CAR-expressing T cell compositions were generated from two human adult donors, substantially as described above. Target cells were co-cultured with the donor-derived CAR T cell compositions for up to 120 hours at an E:T ratio of 2.5:1. Red target cell counts were tracked over time by live cell imaging and counts were normalized to the number of red target cells at baseline to determine the fold-change in target cells over time.
(§2) Anti-CD19 CAR-expressing T cell compositions were generated as described in Example 1 and were cultured with a CD19-expressing lymphoma target cell lines, either SUDHL6, WSU-DLCL2, or Granta-519 at an E:T ratio of 2.5:1. The co-cultures were carried out in the presence of 20 nM or 200 nM of the exemplary BCL2 inhibitor, venetoclax. As controls, target tumor cell lines were incubated only in the presence of the inhibitor or the anti-CD19 CAR T cells. Target cells were labeled with NucLight Red (NLR) to permit tracking of target cells by microscopy and target cell killing was monitored by the loss of fluorescent signal over time, substantially as described in Example 1.

[4] = system: WSU-DLCL2; experiment: as above; type: cell-based
Procedure: as §1, §2

[5] = system: JeKo-1 target cells; experiment: JeKo-1 target cell co-culture for 100 hours; type: cell-based
Procedure: Further, the cytolytic activity of anti-CD19 CAR T cells was not affected when co-cultured with JeKo-1 target cells for 100 hours in the presence of 1.0 μM venetoclax.

[6] = system: anti-CD19 CAR T cells; experiment: Effect of serum concentration on venetoclax IC50 against CAR T cells; type: cell-based; settings: 5%, 10% or 20% serum
Procedure: Thus, to determine whether serum concentration may modulate the effects of venetoclax on CAR T cells, anti-CD19 CAR T cells were cultured in the presence of 5%, 10%, or 20% serum and treated with increasing concentrations of venetoclax.

[7] = system: JeKo-1 mantle cell lymphoma cells; experiment: JeKo-1 murine model of mantle cell lymphoma; type: in vivo, NOD scid gamma (NSG) mice
Procedure: NOD scid gamma (NSG) mice were injected intravenously with 2×10^6 JeKo-1 mantle cell lymphoma cells (Day −7) and treated daily with 12.5, 25, 50, or 100 mg/kg of the exemplary BCL2 inhibitor venetoclax for 21 days (Day 0 through Day 21). Tumor burden (FIG. 11A) and body weight (FIG. 11B) were assessed over the course of treatment.
To determine the effects of venetoclax on anti-CD19 CAR T cells in a venetoclax-resistant murine model of MCL, NSG mice were injected intravenously with 2×10^6 JeKo-1 cells on Day −7, and then treated with intravenous infusions of 1×10^6 anti-CD19 CAR T cells, generated substantially as described in previous Example, on Day −1 and Day 0. Venetoclax was administered daily for 21 days (Day 0 to Day 21) at 6.25, 25, or 100 mg/kg. As a control, a subset of mice were only treated with venetoclax. Tumor burden (FIG. 12A), survival (FIGS. 12B and 12C), and CAR T cell number (FIG. 13) were assessed.

Which results are given for CC1(C)CCC(CN2CCN(c3ccc(C(=O)NS(=O)(=O)c4ccc(NCC5CCOCC5)c([N+](=O)[O-])c4)c(Oc4cnc5[nH]ccc5c4)c3)CC2)=C(c2ccc(Cl)cc2)C1 [venetoclax]?
deleterious effects on CAR T cells ([1]; administered when activation-induced cell death of CAR T cells has peaked (e.g. 2-7 days after CAR T cells), Example 9): deleterious effects on CAR T cells not observed; deleterious effects on the CAR T cells ([1]; therapeutic dose administered 48 or 72 hours after initiation of co-culture): without deleterious effects on the CAR T cells being observed; CAR-T cell numbers and activity ([1]; therapeutic dose given concurrently or at 24 hours after initiation of co-culture): reduced CAR-T cell numbers and activity; activation induced cell death (AICD) of cells of the cell therapy [2]: can exacerbate activation induced cell death (AICD); tumor cell killing [3]: killing of the sensitive tumor cell line SUDHL6 was achieved; CD19-directed CAR T cell killing ([4]; co-culture with anti-CD19 CAR T cells E:T 2.5:1, 20 or 200 nM venetoclax): enhanced; tumor cell killing ([4]; venetoclax alone, 20 nM or 200 nM): did not substantially impact tumor cell killing; cytolytic activity of anti-CD19 CAR T cells ([5]; 1.0 μM venetoclax, 100 hours): not affected; number of JeKo-1 target cells ([5]; venetoclax alone): not reduced; IC50 against anti-CD19 CAR T cells [6]: increase with increasing concentrations of serum; tumor volume ([7]; venetoclax 6.25, 25 or 100 mg/kg daily in combination with CAR T cells, vs untreated and venetoclax-only mice): reduced tumor volume at all measured time points; tumor burden ([7]; venetoclax alone, 6.25, 25 or 100 mg/kg daily for 21 days): increased similarly in untreated mice and mice treated with venetoclax alone; tumor burden (bioluminescence imaging) ([7]; venetoclax alone, 12.5, 25, 50 or 100 mg/kg daily for 21 days): resistant to treatment with venetoclax alone, regardless of dose level
